Reference: PubChem BioAssay (NCI)
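Exposure lasted 48 hours, with cells grown in 96-well plates and compounds tested at five concentrations. At the GI50, growth is halved. TGI marks complete inhibition of growth.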

Experiments:
Assay in all cases: NCI tumour cell line growth inhibition, 48 h
UACC-257 melanoma = system: UACC-257 melanoma
M14 melanoma = system: M14 melanoma
EKVX NSCLC = system: EKVX NSCLC
NCI-H460 lung = system: NCI-H460 lung
MOLT-4 leukemia = system: MOLT-4 leukemia
OVCAR-3 ovarian = system: OVCAR-3 ovarian
SK-MEL-28 melanoma = system: SK-MEL-28 melanoma
SW-620 colon = system: SW-620 colon
MDA-MB-231 breast = system: MDA-MB-231 breast
T-47D breast = system: T-47D breast

CC(=O)O[C@H]1CC[C@@]2(C)C(=C/C(=N\[N+](=O)[O-])[C@H]3C4CCC([C@H](C)CCCC(C)C)[C@@]4(C)CCC32)C1 (stereo not given in full)
TGI (UACC-257 melanoma): > 100 µM | TGI (M14 melanoma): > 100 µM | TGI (EKVX NSCLC): > 100 µM | TGI (NCI-H460 lung): > 100 µM | TGI (MOLT-4 leukemia): > 100 µM | TGI (OVCAR-3 ovarian): > 100 µM | TGI (SK-MEL-28 melanoma): > 100 µM | TGI (SW-620 colon): > 100 µM

O=[N+]([O-])c1cc2c(ccc3occc32)o1
GI50 (UACC-257 melanoma): 1.77 µM | TGI (UACC-257 melanoma): 3.88 µM | GI50 (M14 melanoma): 1.41 µM | TGI (M14 melanoma): 3 µM | GI50 (MOLT-4 leukemia): 2.31 µM | TGI (MOLT-4 leukemia): 28.6 µM | GI50 (OVCAR-3 ovarian): 3.77 µM | TGI (OVCAR-3 ovarian): 15.8 µM | GI50 (SK-MEL-28 melanoma): 2.17 µM | TGI (SK-MEL-28 melanoma): 6.27 µM | GI50 (MDA-MB-231 breast): 1.84 µM | TGI (MDA-MB-231 breast): 5.83 µM | GI50 (SW-620 colon): 3.17 µM | TGI (SW-620 colon): > 100 µM | GI50 (T-47D breast): 41.3 µM | TGI (T-47D breast): > 100 µM

COC(=O)C1C(/C=C/c2ccoc2)ON2CCC[C@@H]12 (stereo not given in full)
TGI (UACC-257 melanoma): > 100 µM | TGI (M14 melanoma): > 100 µM | TGI (EKVX NSCLC): > 100 µM | TGI (NCI-H460 lung): > 100 µM | TGI (OVCAR-3 ovarian): > 100 µM | TGI (SK-MEL-28 melanoma): > 100 µM | TGI (SW-620 colon): > 100 µM

CNc1ncc2cc(Oc3ccc(F)cc3F)c(=O)n(C)c2n1
GI50 (UACC-257 melanoma): > 25 µM | TGI (UACC-257 melanoma): > 25 µM | GI50 (M14 melanoma): > 25 µM | TGI (M14 melanoma): > 25 µM | GI50 (NCI-H460 lung): > 25 µM | TGI (NCI-H460 lung): > 25 µM | GI50 (MOLT-4 leukemia): > 25 µM | TGI (MOLT-4 leukemia): > 25 µM | GI50 (OVCAR-3 ovarian): > 25 µM | TGI (OVCAR-3 ovarian): > 25 µM | GI50 (SK-MEL-28 melanoma): > 25 µM | TGI (SK-MEL-28 melanoma): > 25 µM | GI50 (MDA-MB-231 breast): > 24.1 µM | TGI (MDA-MB-231 breast): > 25 µM | GI50 (SW-620 colon): > 25 µM | TGI (SW-620 colon): > 25 µM | GI50 (T-47D breast): > 25 µM | TGI (T-47D breast): > 25 µM

NC(=O)N/N=C(\CCC(=O)N(Cc1ccccc1)Cc1ccccc1)CC(=O)c1ccc(F)cc1
TGI (UACC-257 melanoma): > 100 µM | TGI (M14 melanoma): > 100 µM | TGI (EKVX NSCLC): > 100 µM | TGI (NCI-H460 lung): > 100 µM | TGI (MOLT-4 leukemia): > 100 µM | TGI (OVCAR-3 ovarian): > 100 µM | TGI (SK-MEL-28 melanoma): > 100 µM | TGI (SW-620 colon): > 100 µM

CC(=O)O/N=C/c1cc2c(cc1Br)OCO2
TGI (UACC-257 melanoma): > 349 µM | TGI (EKVX NSCLC): > 349 µM | TGI (NCI-H460 lung): > 349 µM | TGI (MOLT-4 leukemia): > 349 µM | TGI (OVCAR-3 ovarian): > 349 µM | TGI (SK-MEL-28 melanoma): > 349 µM | TGI (SW-620 colon): > 349 µM

Cc1cc(Cl)ccc1NC(=O)C(=O)Cc1occc(=O)c1O
TGI (UACC-257 melanoma): > 100 µM | TGI (M14 melanoma): > 100 µM | TGI (EKVX NSCLC): > 100 µM | TGI (NCI-H460 lung): > 100 µM | TGI (MOLT-4 leukemia): > 100 µM | TGI (SK-MEL-28 melanoma): > 100 µM | TGI (SW-620 colon): > 100 µM

Nc1ccc(C2=Nc3ccccc3SC(c3ccccc3O)C2)cc1 (stereo not given)
TGI (UACC-257 melanoma): > 100 µM | TGI (M14 melanoma): > 100 µM | TGI (EKVX NSCLC): > 100 µM | TGI (NCI-H460 lung): > 100 µM | TGI (MOLT-4 leukemia): 58.5 µM | TGI (OVCAR-3 ovarian): > 100 µM | TGI (SK-MEL-28 melanoma): > 100 µM | TGI (SW-620 colon): > 100 µM

Cc1ccc(Nc2nc(C)c(C(/C=C/c3ccc4c(c3)OCO4)=N/Nc3ccc([N+](=O)[O-])cc3[N+](=O)[O-])s2)c([N+](=O)[O-])c1
TGI (UACC-257 melanoma): > 100 µM | TGI (M14 melanoma): > 100 µM | TGI (EKVX NSCLC): > 100 µM | TGI (NCI-H460 lung): > 100 µM | TGI (MOLT-4 leukemia): > 100 µM | TGI (OVCAR-3 ovarian): > 100 µM | TGI (SK-MEL-28 melanoma): > 100 µM | TGI (SW-620 colon): > 100 µM

COc1cc2c(cc1OCCCCCn1c3ccccc3c3ccccc31)N=C[C@@H]1CCCN1C2=O
GI50 (UACC-257 melanoma): 2.29 µM | TGI (UACC-257 melanoma): 5.85 µM | GI50 (EKVX NSCLC): 5.27 µM | TGI (EKVX NSCLC): 18.7 µM | GI50 (MOLT-4 leukemia): 2.15 µM | TGI (MOLT-4 leukemia): 6.11 µM | GI50 (OVCAR-3 ovarian): 1.88 µM | TGI (OVCAR-3 ovarian): 3.57 µM | GI50 (SK-MEL-28 melanoma): 1.8 µM | TGI (SK-MEL-28 melanoma): 3.5 µM | GI50 (MDA-MB-231 breast): 1.73 µM | TGI (MDA-MB-231 breast): 3.69 µM | GI50 (T-47D breast): 2.79 µM | TGI (T-47D breast): 9.24 µM

O=C1/C(=C\c2ccccc2)c2ccccc2N1/N=C\c1ccccc1
TGI (UACC-257 melanoma): > 100 µM | TGI (M14 melanoma): > 100 µM | TGI (EKVX NSCLC): > 100 µM | TGI (NCI-H460 lung): > 100 µM | TGI (MOLT-4 leukemia): > 100 µM | TGI (OVCAR-3 ovarian): > 100 µM | TGI (SK-MEL-28 melanoma): > 100 µM | TGI (SW-620 colon): > 100 µM

CCOC(=O)C1Oc2ccc([N+](=O)[O-])cc2C1(C)O (stereo not given)
TGI (UACC-257 melanoma): > 100 µM | TGI (M14 melanoma): > 100 µM | TGI (EKVX NSCLC): > 100 µM | TGI (NCI-H460 lung): > 100 µM | TGI (MOLT-4 leukemia): > 100 µM | TGI (OVCAR-3 ovarian): > 100 µM | TGI (SK-MEL-28 melanoma): > 100 µM | TGI (SW-620 colon): > 100 µM

O=CN1N=C(c2ccc(Nc3ccnc4cc(Cl)ccc34)cc2)CC1c1ccc(Cl)cc1 (stereo not given)
GI50 (UACC-257 melanoma): > 100 µM | TGI (UACC-257 melanoma): > 100 µM | GI50 (M14 melanoma): 0.622 µM | TGI (M14 melanoma): > 100 µM | GI50 (NCI-H460 lung): 0.592 µM | TGI (NCI-H460 lung): > 100 µM | GI50 (MOLT-4 leukemia): 0.529 µM | TGI (MOLT-4 leukemia): > 100 µM | GI50 (OVCAR-3 ovarian): 0.352 µM | TGI (OVCAR-3 ovarian): > 100 µM | GI50 (SK-MEL-28 melanoma): 0.758 µM | TGI (SK-MEL-28 melanoma): > 100 µM | GI50 (MDA-MB-231 breast): 1.43 µM | TGI (MDA-MB-231 breast): > 100 µM | GI50 (SW-620 colon): 0.478 µM | TGI (SW-620 colon): > 100 µM | GI50 (T-47D breast): 1.56 µM | TGI (T-47D breast): > 100 µM

COc1ccc(/C(C#N)=C(/N)SCc2ccccc2Cl)cc1
TGI (UACC-257 melanoma): 33.7 µM | TGI (M14 melanoma): 27.8 µM | TGI (EKVX NSCLC): 48.2 µM | TGI (MOLT-4 leukemia): 85.2 µM | TGI (OVCAR-3 ovarian): 24.3 µM | TGI (SK-MEL-28 melanoma): 35.8 µM | TGI (SW-620 colon): 29.7 µM

O=c1[nH]c2c(c3ccccc13)CCc1ccccc1-2
TGI (UACC-257 melanoma): > 100 µM | TGI (EKVX NSCLC): > 100 µM | TGI (MOLT-4 leukemia): > 100 µM | TGI (OVCAR-3 ovarian): > 100 µM | TGI (SK-MEL-28 melanoma): > 100 µM | TGI (SW-620 colon): > 100 µM

Cc1cc(Cl)ccc1Nc1nc(C(F)(F)F)ccc1C(=O)Nc1cccc(C(F)(F)F)c1
GI50 (UACC-257 melanoma): 3.2 µM | TGI (UACC-257 melanoma): 11.6 µM | GI50 (EKVX NSCLC): 1.85 µM | TGI (EKVX NSCLC): 11.1 µM | GI50 (NCI-H460 lung): 3.07 µM | TGI (NCI-H460 lung): 10.6 µM | GI50 (MOLT-4 leukemia): 3.04 µM | TGI (MOLT-4 leukemia): 13.3 µM | GI50 (OVCAR-3 ovarian): 3.52 µM | TGI (OVCAR-3 ovarian): 19.1 µM | GI50 (SK-MEL-28 melanoma): 4.79 µM | TGI (SK-MEL-28 melanoma): 16.6 µM | GI50 (MDA-MB-231 breast): 2.03 µM | TGI (MDA-MB-231 breast): 8.15 µM | GI50 (SW-620 colon): 4.23 µM | TGI (SW-620 colon): 16.6 µM | GI50 (T-47D breast): 4.53 µM | TGI (T-47D breast): 23.8 µM

CC1(C)N=C(Oc2ccccc2)n2nccc2N1
TGI (UACC-257 melanoma): > 100 µM | TGI (M14 melanoma): > 100 µM | TGI (EKVX NSCLC): > 100 µM | TGI (NCI-H460 lung): > 100 µM | TGI (MOLT-4 leukemia): > 100 µM | TGI (OVCAR-3 ovarian): > 100 µM | TGI (SK-MEL-28 melanoma): > 100 µM | TGI (SW-620 colon): > 100 µM

N#CC(C(=O)CCC(=O)Nc1ccc(Cl)c(Cl)c1)c1ccc(Cl)cc1 (stereo not given)
TGI (UACC-257 melanoma): > 100 µM | TGI (M14 melanoma): > 100 µM | TGI (EKVX NSCLC): > 100 µM | TGI (NCI-H460 lung): > 100 µM | TGI (MOLT-4 leukemia): > 100 µM | TGI (OVCAR-3 ovarian): > 100 µM | TGI (SK-MEL-28 melanoma): > 100 µM | TGI (SW-620 colon): > 100 µM

NS(=O)(=O)c1ccc(NC(=O)c2cccc3c(Nc4ccc(S(N)(=O)=O)cc4)c4ccccc4nc23)cc1
TGI (UACC-257 melanoma): > 100 µM | TGI (M14 melanoma): > 100 µM | TGI (EKVX NSCLC): > 100 µM | TGI (NCI-H460 lung): > 100 µM | TGI (MOLT-4 leukemia): 39.8 µM | TGI (OVCAR-3 ovarian): 35.2 µM | TGI (SK-MEL-28 melanoma): > 100 µM | TGI (SW-620 colon): > 100 µM

COc1ccc(C=C2C(=O)NC(=O)NC2=O)cc1OCc1ccccc1
GI50 (M14 melanoma): 28.1 µg/mL | TGI (M14 melanoma): 82.5 µg/mL | GI50 (EKVX NSCLC): 85.2 µg/mL | GI50 (OVCAR-3 ovarian): 17 µg/mL | TGI (OVCAR-3 ovarian): 39.3 µg/mL | GI50 (SK-MEL-28 melanoma): 65.7 µg/mL | GI50 (MDA-MB-231 breast): 31.4 µg/mL | GI50 (SW-620 colon): 50.7 µg/mL

O=S(=O)(N/N=C/c1ccc(Cl)cc1Cl)c1ccccc1
TGI (UACC-257 melanoma): > 100 µM | TGI (M14 melanoma): > 100 µM | TGI (EKVX NSCLC): > 100 µM | TGI (MOLT-4 leukemia): > 100 µM | TGI (OVCAR-3 ovarian): > 100 µM | TGI (SK-MEL-28 melanoma): > 100 µM | TGI (SW-620 colon): > 100 µM
